Results: ChEMBL document CHEMBL1201862, “PubChem BioAssay data set” (2004)
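Exposure lasted 48 hours, with cells grown in 96-well plates and compounds tested at five concentrations. GI50 = concentration required for 50% inhibition of growth.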 Activity calls are given as the source filed them. Cut-off read from the data, not from the text of the source: active = GI50 up to about 1.1 µM and inactive = higher.

Assays:
Experiment in all cases: DTP human tumour cell line panel, 48 h
HCC 2998 = tested on: HCC 2998
DU-145 = tested on: DU-145
UACC-257 = tested on: UACC-257
HCT-116 = tested on: HCT-116
MOLT-4 = tested on: MOLT-4
SW-620 = tested on: SW-620
IGROV-1 = tested on: IGROV-1
K562 = tested on: K562
SNB-19 = tested on: SNB-19
SF-295 = tested on: SF-295
SNB-75 = tested on: SNB-75
OVCAR-8 = tested on: OVCAR-8
SK-MEL-28 = tested on: SK-MEL-28
COLO 205 = tested on: COLO 205
MCF7 = tested on: MCF7
T47D = tested on: T47D
SR = tested on: SR
HCT-15 = tested on: HCT-15
SK-OV-3 = tested on: SK-OV-3
HOP-62 = tested on: HOP-62
CAKI-1 = tested on: CAKI-1
PC-3 = tested on: PC-3
SN12C = tested on: SN12C
ACHN = tested on: ACHN
MDA-N = tested on: MDA-N
OVCAR-3 = tested on: OVCAR-3
M14 = tested on: M14
RPMI-8226 = tested on: RPMI-8226
786-0 = tested on: 786-0
NCI-H460 = tested on: NCI-H460
MDA-MB-231 = tested on: MDA-MB-231
HT-29 = tested on: HT-29
NCI/ADR-RES = tested on: NCI/ADR-RES
NCI-H23 = tested on: NCI-H23
LOX IMVI = tested on: LOX IMVI
SK-MEL-2 = tested on: SK-MEL-2
HL-60 = tested on: HL-60
SK-MEL-5 = tested on: SK-MEL-5
HOP-92 = tested on: HOP-92
MDA-MB-435 = tested on: MDA-MB-435
NCI-H226 = tested on: NCI-H226
RXF 393 = tested on: RXF 393
BT-549 = tested on: BT-549
UACC-62 = tested on: UACC-62
Malme-3M = tested on: Malme-3M
UO-31 = tested on: UO-31
A549 = tested on: A549
Hs-578T = tested on: Hs-578T
KM12 = tested on: KM12
SF-268 = tested on: SF-268
OVCAR-5 = tested on: OVCAR-5
EKVX = tested on: EKVX
OVCAR-4 = tested on: OVCAR-4
U-251 = tested on: U-251
TK-10 = tested on: TK-10
NCI-H522 = tested on: NCI-H522
CCRF-CEM = tested on: CCRF-CEM
SF-539 = tested on: SF-539

CCOC(=O)c1c(N)sc2c1CC(C)CC2 (stereo not drawn) was tested, and the GI50 (HCC 2998) was 19.7 µM (inactive), the GI50 (DU-145) was 67.5 µM (inactive) and the GI50 (UACC-257) was 31.2 µM (inactive). The GI50 (HCT-116) was 47.6 µM (inactive), the GI50 (MOLT-4) was 30.9 µM (inactive) and the GI50 (SW-620) was 55.6 µM (inactive). The GI50 (IGROV-1) was 57.4 µM (inactive), the GI50 (K562) was 39.4 µM (inactive) and the GI50 (SNB-19) was 31 µM (inactive). For the same molecule, the GI50 (SF-295) was 45 µM (inactive), the GI50 (SNB-75) was 26.5 µM (inactive) and the GI50 (OVCAR-8) was 45.3 µM (inactive). For the same molecule, the GI50 (SK-MEL-28) was 53.5 µM (inactive), the GI50 (COLO 205) was 27.9 µM (inactive) and the GI50 (MCF7) was 32.9 µM (inactive). For the same molecule, the GI50 (T47D) was 32.5 µM (inactive), the GI50 (SR) was 28.6 µM (inactive) and the GI50 (HCT-15) was 41.8 µM. The GI50 (SK-OV-3) was 47.6 µM (inactive), the GI50 (HOP-62) was 52.5 µM (inactive) and the GI50 (CAKI-1) was 49 µM (inactive). The GI50 (PC-3) was 29.4 µM (inactive), the GI50 (SN12C) was 44.4 µM (inactive) and the GI50 (ACHN) was 39.9 µM (inactive). For the same molecule, the GI50 (MDA-N) was 47.5 µM (inactive), the GI50 (OVCAR-3) was 46.1 µM (inactive) and the GI50 (M14) was 26.8 µM (inactive). For the same molecule, the GI50 (RPMI-8226) was 30 µM (inactive), the GI50 (786-0) was 23.4 µM (inactive) and the GI50 (NCI-H460) was 35.6 µM (inactive). The GI50 (MDA-MB-231) was 33.4 µM (inactive), the GI50 (HT-29) was 22.4 µM (inactive) and the GI50 (NCI/ADR-RES) was 44.3 µM (inactive). For the same molecule, the GI50 (NCI-H23) was 63.7 µM (inactive), the GI50 (LOX IMVI) was 42.2 µM (inactive) and the GI50 (SK-MEL-2) was 31.9 µM (inactive). For the same molecule, the GI50 (HL-60) was 0.292 µM (active), the GI50 (SK-MEL-5) was 19.2 µM (inactive) and the GI50 (HOP-92) was 27.7 µM (inactive). For the same molecule, the GI50 (MDA-MB-435) was 41.2 µM (inactive), the GI50 (NCI-H226) was 23.5 µM (inactive) and the GI50 (RXF 393) was 18.6 µM (inactive). The GI50 (BT-549) was 54.2 µM (inactive), the GI50 (UACC-62) was 51.2 µM (inactive) and the GI50 (Malme-3M) was 38 µM (inactive). The GI50 (UO-31) was 32.3 µM (inactive), the GI50 (A549) was 38.5 µM (inactive) and the GI50 (Hs-578T) was 43.7 µM (inactive). For the same molecule, the GI50 (KM12) was 41.5 µM (inactive), the GI50 (SF-268) was 45.1 µM (inactive) and the GI50 (OVCAR-5) was 55.3 µM (inactive). The GI50 (EKVX) was 32.6 µM (inactive), the GI50 (OVCAR-4) was 34.1 µM (inactive) and the GI50 (U-251) was 42.4 µM (inactive). The GI50 (TK-10) was 45.6 µM (inactive) and the GI50 (NCI-H522) was 18.4 µM (inactive).
With CCCCCC(=O)OCC(=O)[C@H]1[C@H](C)C[C@H]2[C@@H]3C[C@H](F)C4=C/C(=N/OC(=O)c5cccc6c(=O)c7ccccc7[nH]c56)C=C[C@]4(C)[C@H]3[C@@H](O)C[C@@]21C the GI50 (HCC 2998) was 24.7 µM (inactive), the GI50 (DU-145) was 39.4 µM (inactive) and the GI50 (UACC-257) was 20 µM (inactive). For the same molecule, the GI50 (HCT-116) was 26.4 µM (inactive), the GI50 (MOLT-4) was 17.8 µM (inactive) and the GI50 (SW-620) was 28.2 µM (inactive). For the same molecule, the GI50 (IGROV-1) was 25.2 µM (inactive), the GI50 (K562) was 46.5 µM (inactive) and the GI50 (SNB-19) was 37.3 µM (inactive). The GI50 (SF-295) was 47.8 µM (inactive), the GI50 (SNB-75) was 19.1 µM (inactive) and the GI50 (OVCAR-8) was 10.8 µM (inactive). For the same molecule, the GI50 (CCRF-CEM) was 89.7 µM (inactive), the GI50 (COLO 205) was 24.3 µM (inactive) and the GI50 (MCF7) was 21.9 µM (inactive). For the same molecule, the GI50 (T47D) was 19 µM (inactive), the GI50 (SR) was 21.5 µM (inactive) and the GI50 (HCT-15) was 26.6 µM. For the same molecule, the GI50 (SK-OV-3) was 24.8 µM (inactive), the GI50 (HOP-62) was 33.4 µM (inactive) and the GI50 (CAKI-1) was 41.8 µM (inactive). The GI50 (PC-3) was 20.3 µM (inactive), the GI50 (SN12C) was 20 µM (inactive) and the GI50 (ACHN) was 19.9 µM (inactive). For the same molecule, the GI50 (MDA-N) was 28.3 µM (inactive), the GI50 (OVCAR-3) was 18.9 µM (inactive) and the GI50 (SF-539) was 23.9 µM (inactive). The GI50 (M14) was 28.6 µM (inactive), the GI50 (RPMI-8226) was < 0.01 µM (active) and the GI50 (786-0) was 48.3 µM (inactive). For the same molecule, the GI50 (MDA-MB-231) was 40.8 µM (inactive), the GI50 (HT-29) was 21.7 µM (inactive) and the GI50 (NCI/ADR-RES) was 11.2 µM (inactive). The GI50 (NCI-H23) was 29.6 µM (inactive), the GI50 (LOX IMVI) was 17.6 µM (inactive) and the GI50 (SK-MEL-2) was 23.1 µM (inactive). The GI50 (HL-60) was > 100 µM (inactive), the GI50 (SK-MEL-5) was 14.7 µM (inactive) and the GI50 (HOP-92) was 73.1 µM (inactive). For the same molecule, the GI50 (MDA-MB-435) was 23.8 µM (inactive), the GI50 (NCI-H226) was 4.78 µM (inactive) and the GI50 (BT-549) was 16.5 µM (inactive). For the same molecule, the GI50 (UACC-62) was 16.7 µM (inactive), the GI50 (Malme-3M) was 12.5 µM (inactive) and the GI50 (UO-31) was 16 µM (inactive). The GI50 (A549) was 20.6 µM (inactive), the GI50 (Hs-578T) was 31.7 µM (inactive) and the GI50 (KM12) was 10.7 µM (inactive). The GI50 (SF-268) was 53.8 µM (inactive), the GI50 (OVCAR-5) was 32.8 µM (inactive) and the GI50 (EKVX) was 25.5 µM (inactive). For the same molecule, the GI50 (OVCAR-4) was 27.4 µM (inactive), the GI50 (U-251) was 45.9 µM (inactive) and the GI50 (TK-10) was 26.2 µM (inactive). The GI50 (NCI-H522) was 14.3 µM (inactive).
In the case of CC(=O)N1CCN(C23OC4(N5CCN(C(C)=O)CC5)C5C6CC(C7C6C4C72)C53)CC1 (stereo not drawn), the GI50 (HCC 2998) is reported as > 100 µM (inactive), the GI50 (DU-145) is reported as > 100 µM (inactive) and the GI50 (UACC-257) is reported as > 100 µM (inactive). The GI50 (HCT-116) was > 100 µM (inactive), the GI50 (MOLT-4) was > 100 µM (inactive) and the GI50 (SW-620) was > 100 µM (inactive). The GI50 (IGROV-1) was > 100 µM (inactive), the GI50 (K562) was > 100 µM (inactive) and the GI50 (SNB-19) was > 100 µM (inactive). The GI50 (SF-295) was > 100 µM (inactive), the GI50 (SNB-75) was > 100 µM (inactive) and the GI50 (OVCAR-8) was > 100 µM (inactive). The GI50 (CCRF-CEM) was > 100 µM (inactive), the GI50 (COLO 205) was > 100 µM (inactive) and the GI50 (MCF7) was > 100 µM (inactive). The GI50 (T47D) was > 100 µM (inactive), the GI50 (SR) was > 100 µM (inactive) and the GI50 (HCT-15) was over 100 µM. The GI50 (SK-OV-3) was > 100 µM (inactive), the GI50 (HOP-62) was > 100 µM (inactive) and the GI50 (CAKI-1) was > 100 µM (inactive). For the same molecule, the GI50 (PC-3) was > 100 µM (inactive), the GI50 (SN12C) was > 100 µM (inactive) and the GI50 (ACHN) was > 100 µM (inactive). For the same molecule, the GI50 (MDA-N) was > 100 µM (inactive), the GI50 (OVCAR-3) was > 100 µM (inactive) and the GI50 (SF-539) was > 100 µM (inactive). For the same molecule, the GI50 (M14) was > 100 µM (inactive), the GI50 (RPMI-8226) was > 100 µM (inactive) and the GI50 (786-0) was > 100 µM (inactive). The GI50 (NCI-H460) was > 100 µM (inactive), the GI50 (MDA-MB-231) was > 100 µM (inactive) and the GI50 (HT-29) was > 100 µM (inactive). The GI50 (NCI/ADR-RES) was > 100 µM (inactive), the GI50 (NCI-H23) was > 100 µM (inactive) and the GI50 (LOX IMVI) was > 100 µM (inactive). For the same molecule, the GI50 (SK-MEL-2) was > 100 µM (inactive), the GI50 (HL-60) was > 100 µM (inactive) and the GI50 (SK-MEL-5) was > 100 µM (inactive). The GI50 (HOP-92) was > 100 µM (inactive), the GI50 (MDA-MB-435) was > 100 µM (inactive) and the GI50 (NCI-H226) was > 100 µM (inactive). For the same molecule, the GI50 (RXF 393) was > 100 µM (inactive), the GI50 (BT-549) was > 100 µM (inactive) and the GI50 (UACC-62) was > 100 µM (inactive). The GI50 (Malme-3M) was > 100 µM (inactive), the GI50 (UO-31) was > 100 µM (inactive) and the GI50 (A549) was > 100 µM (inactive). For the same molecule, the GI50 (Hs-578T) was > 100 µM (inactive), the GI50 (KM12) was > 100 µM (inactive) and the GI50 (SF-268) was > 100 µM (inactive). The GI50 (OVCAR-5) was > 100 µM (inactive), the GI50 (EKVX) was > 100 µM (inactive) and the GI50 (OVCAR-4) was > 100 µM (inactive). For the same molecule, the GI50 (U-251) was > 100 µM (inactive), the GI50 (TK-10) was > 100 µM (inactive) and the GI50 (NCI-H522) was > 100 µM (inactive).
